Measured values: patent US8076452B2, “Streptavidin-binding peptide” (priority 2002, dated 2011)
Like-named read-outs stand apart in the source and are kept apart here.

How the values were obtained:
[1] = molecular target: T1, streptavidin (Streptomyces avidinii, UniProt P22629); details: prior art; read-out: dissociation constant Kd; cited from earlier work
[2] = molecular target: T1, streptavidin; assay: Dissociation constant measurement, BiacoreX, NTA sensor chip (first measurements); format: binding; details: for Kd: FABP with N-terminal 15-aa peptide, C-terminal His6 on NTA chip
Excerpt: Using standard methods for this technology, the FAB protein (fatty acid binding protein) (FABP) from bovine hearts was expressed in vitro in a cell-free protein biosynthesis by means of a coupled transcription/translation system. The expressed FAB protein had at the N terminus an additional streptavidin-binding peptide composed of 15 amino acids with different amino acid sequences as fusion partners.
Two binding peptides contain in their amino acid sequence the HPQ motif (motif 1 and 2) described in the prior art, and two of them contain the streptavidin-binding peptide according to SEQ ID NOS: 1-6 according to the invention (motif 3 and 4). In addition, the expressed proteins were provided at the C terminus with a “His-tag” consisting of 6 histidines. The proteins were purified by means of affinity chromatography via Ni2+IDA-agarose using standard methods. It can be seen that with equal length, binding peptides of a sequence according to the invention have a substantially lower dissociation constant than a binding peptide with HPQ motif.
The measurements of the dissociation constant were performed with a BiacoreX system and the sensor chip NTA of the company Biacore. The proteins generated during the expression described in Example 1 were investigated, i.e. FAB proteins, which had at the N terminus a peptide consisting of 15 amino acids as fusion partners and at the C terminus 6 histidines, which were needed for the immobilization on the sensor chip. The binding affinity of the proteins generated during the expression to streptavidin described in Example 1 was measured in the Biacore device according to manufacturer's instructions. The protein to be investigated is on the sensor chip, and a streptavidin solution having a defined concentration is sprayed in. The interaction (binding) between the two molecules is measured by the device and quantified as so-called resonance units (RU). For the measurement, the buffers specified by the manufacturer were used.

[3] = molecular target: T1, streptavidin; assay: Binding constants by surface plasmon resonance, BIAcore NTA chip, optimized measuring method; details: peptide N-terminal of FABP, C-terminal Gly2-His8, 1,100 RU immobilized
Excerpt: The information supplied by the substitution analysis was verified by determining the binding constants of different peptides by surface plasmon resonance spectroscopy using a BIAcore device. The measurements were made with the NTA sensor chip of the company BIAcore and by means of the fatty acid-binding protein from bovine hearts (FABP). The FABP served for the immobilization and presentation of the peptide. Further, it was intended to thus simulate the conditions occurring in an affinity chromatography, since the peptide is to be used in the future as an affinity peptide for the purification of proteins. In contrast to the first measurements, where the peptides to be verified replaced the four N terminal amino acids of the FABP, the arrangement of the peptides was this time also N terminal, but they were not part of the FABP. The His-tag necessary for the immobilization was also modified. It was located same as for the first measurements at the C terminus of the FABP, was however extended from six to eight histidines and further spaced by a linker consisting of two glycines from the FABP. Thereby, the immobilization of the ligands could distinctly be improved, and thus the drift of the base line resulting from the washing-off of the ligand could be minimized. For every measurement, an identical amount of the respective FABPs was immobilized, what corresponded to a rise of the base line by 1,100 resonance units (RU). As a reference was used the FABP with the His-tag, but without N terminal binding peptide.
The binding constants obtained with the optimized measuring method were the following: […]

[4] = molecular target: T1, streptavidin; assay: Substitution analysis by spot synthesis on cellulose membrane, peroxidase-labeled streptavidin, luminescence; format: binding; details: peptide spots on cellulose membrane
Excerpt: The binding peptide (FAx 3) with the sequence DVEAWLDERVPLVET [SEQ ID NO: 16] was subjected to a substitution analysis, and it was intended thereby to identify a possible minimum motif (=shortened peptide) and examine the effect of individual amino acid exchanges on the binding specificity. In a substitution analysis, peptides are synthesized by means of spot methods (Frank, R. 1992) on a cellulose membrane serving as a solid phase. Every position of the peptide comprising 15 amino acids was systematically replaced by the other 19 L amino acids.
The substitution analysis was incubated with a peroxidase-labeled streptavidin and developed with a luminescence substrate. Thereby it was possible to find out, how far the peptide can be shortened and which amino acids are “conserved” and thus not or only very poorly exchangeable. […] The substitution analysis also indicated positions, where the exchange of the original amino acid by another one could result in an improvement of the streptavidin binding.

[5] = molecular target: streptavidin-Sepharose (Streptomyces avidinii, UniProt P22629); assay: Purification of the FABP fusion protein via streptavidin-Sepharose affinity column
Sequence of streptavidin-Sepharose (P22629 25-183): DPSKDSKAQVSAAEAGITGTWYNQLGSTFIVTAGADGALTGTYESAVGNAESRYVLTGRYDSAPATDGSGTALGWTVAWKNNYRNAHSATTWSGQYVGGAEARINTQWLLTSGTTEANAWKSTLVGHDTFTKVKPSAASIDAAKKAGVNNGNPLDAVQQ
Excerpt: (§1) Using standard methods, the FAB protein having at the N terminus an additional peptide consisting of 15 amino acids with the amino acid sequence DVEAWLDERVPLVET [SEQ ID NO: 16] (motif 3) as fusion partners, is expressed in vitro in a cell-free protein biosynthesis by means of a coupled transcription/translation system. For purification of the overexpressed defined protein, the streptavidin was coupled to a solid phase. As a solid phase was used a Sepharose. The expressed FAB protein was then purified using standard methods via a column comprising streptavidin-Sepharose or StrepTactin-Sepharose. For the purification the following buffers were used: washing buffer (100 mM Tris-HCl (pH 8.0), 150 mM NaCl, 1 mM EDTA).
(§2) For the elution of streptavidin, the washing buffer contained 2 mM biotin, and for the elution of StrepTactin, the washing buffer contained 2.5 mM desthiobiotin.
(§3) The percentage distribution of the used defined protein on the various fractions of the affinity chromatography can be taken from Table 3. In Table 3, D represents the application of sample/passage, W washing fraction, and E elution fraction.

[6] = molecular target: StrepTactin-Sepharose (Streptomyces avidinii, UniProt P22629, E68V/S69T/V71R); assay: Purification of the FABP fusion protein via StrepTactin-Sepharose affinity column
Sequence of StrepTactin-Sepharose (P22629 38-163 E68V/S69T/V71R): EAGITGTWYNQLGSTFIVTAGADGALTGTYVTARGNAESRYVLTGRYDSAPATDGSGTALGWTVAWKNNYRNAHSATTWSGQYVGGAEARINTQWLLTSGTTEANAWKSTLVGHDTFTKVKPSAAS
Excerpt: as §1, §2, §3

T1 sequence (P22629 25-183, species assumed): as the sequence (P22629 25-183) above

Substance: AWRHPQFGG [Strep-tag I]
- Kd [1]: 10000 to 37000 nM

Substance: DLYDIDRNWVGHPQG [motif 1, D L Y D I D R N W V G H P Q G, reference compound]
- Kd [2]: 8000 nM
- resonance units (RU) ([2]; Streptavidin conc. 500 nM): 62 RU
- resonance units (RU) ([2]; Streptavidin conc. 1 μM): 123 RU
- resonance units (RU) ([2]; Streptavidin conc. 2 μM): 233 RU
- resonance units (RU) ([2]; Streptavidin conc. 4 μM): 407 RU
- resonance units (RU) ([2]; Streptavidin conc. 8 μM): 621 RU
- resonance units (RU) ([2]; Streptavidin conc. 16 μM): 779 RU
- resonance units (RU) ([2]; Streptavidin conc. 32 μM): 955 RU

Substance: DNYDADLAWDTHPQD [motif 2, D N Y D A D L A W D T H P Q D, reference compound]
- Kd [2]: 70000 nM
- resonance units (RU) ([2]; Streptavidin conc. 3 μM): 64 RU
- resonance units (RU) ([2]; Streptavidin conc. 6 μM): 98 RU
- resonance units (RU) ([2]; Streptavidin conc. 15 μM): 201 RU
- resonance units (RU) ([2]; Streptavidin conc. 30 μM): 337 RU
- resonance units (RU) ([2]; Streptavidin conc. 60 μM): 536 RU

Substance: DVDAWLDER
- Kd ([3]; read-out: Kd): 940 ± 140 nM

Substance: DVEAWFDER
- Kd [3]: not measurable

Substance: DVEAWIADPAVHFTT [motif 4, D V E A W I A D P A V H F T T]
- Kd [2]: 200 nM
- resonance units (RU) ([2]; Streptavidin conc. 30 nM): 68 RU
- resonance units (RU) ([2]; Streptavidin conc. 60 nM): 171 RU
- resonance units (RU) ([2]; Streptavidin conc. 125 nM): 280 RU
- resonance units (RU) ([2]; Streptavidin conc. 250 nM): 384 RU
- resonance units (RU) ([2]; Streptavidin conc. 500 nM): 478 RU
- resonance units (RU) ([2]; Streptavidin conc. 1 μM): 560 RU
- resonance units (RU) ([2]; Streptavidin conc. 2 μM): 644 RU

Substance: DVEAWL
- streptavidin binding [4]: sufficient streptavidin binding

Substance: DVEAWLDAR
- Kd ([3]; read-out: Kd): 160 ± 30 nM

Substance: DVEAWLDER
- Kd ([3]; read-out: Kd): 240 ± 40 nM
- streptavidin binding [4]: clearly better streptavidin binding

Substance: DVEAWLDERVPLVET [motif 3, D V E A W L D E R V P L V E T]
- Kd [2]: 84 nM
- resonance units (RU) ([2]; Streptavidin conc. 15 nM): 98 RU
- resonance units (RU) ([2]; Streptavidin conc. 30 nM): 242 RU
- resonance units (RU) ([2]; Streptavidin conc. 60 nM): 461 RU
- resonance units (RU) ([2]; Streptavidin conc. 125 nM): 613 RU
- resonance units (RU) ([2]; Streptavidin conc. 250 nM): 704 RU
- resonance units (RU) ([2]; Streptavidin conc. 500 nM): 786 RU
- resonance units (RU) ([2]; Streptavidin conc. 2 μM): 946 RU
- resonance units (RU) ([2]; Streptavidin conc. 4 μM): 983 RU
- Kd ([3]; read-out: Kd): 3.6 ± 0.6 nM
- percentage distribution of the protein, fraction D ([5]; application of sample/passage): 3.5%
- percentage distribution of the protein, fraction E1 ([5]; elution fraction 1, 2 mM biotin): 0.4%
- percentage distribution of the protein, fraction E2 ([5]; elution fraction 2, 2 mM biotin): 76.9%
- percentage distribution of the protein, fraction E3 ([5]; elution fraction 3, 2 mM biotin): 0.7%
- applied protein recovered for the eluate ([5]; streptavidin-Sepharose): 78%
- applied protein recovered from the column ([5]; streptavidin-Sepharose): 90%
- percentage distribution of the protein, Tot. ([5]; sum of all fractions): 89.6%
- percentage distribution of the protein, fraction W1 ([5]; washing fraction 1): 6.8%
- percentage distribution of the protein, fraction W2 ([5]; washing fraction 2): 1.0%
- percentage distribution of the protein, fraction W3 ([5]; washing fraction 3): 0.3%
- applied protein recovered for the eluate ([6]; StrepTactin-Sepharose): 71%
- applied protein recovered from the column ([6]; StrepTactin-Sepharose): 84%
- percentage distribution of the protein, fraction D ([6]; application of sample/passage): 3.0%
- percentage distribution of the protein, fraction E1 ([6]; elution fraction 1, 2.5 mM desthiobiotin): 0.9%
- percentage distribution of the protein, fraction E2 ([6]; elution fraction 2, 2.5 mM desthiobiotin): 45.9%
- percentage distribution of the protein, fraction E3 ([6]; elution fraction 3, 2.5 mM desthiobiotin): 23.2%
- percentage distribution of the protein, fraction E4 ([6]; elution fraction 4, 2.5 mM desthiobiotin): 1.0%
- percentage distribution of the protein, fraction E5 ([6]; elution fraction 5, 2.5 mM desthiobiotin): 0.3%
- percentage distribution of the protein, Tot. ([6]; sum of all fractions): 84.4%
- percentage distribution of the protein, fraction W1 ([6]; washing fraction 1): 7.4%
- percentage distribution of the protein, fraction W2 ([6]; washing fraction 2): 1.8%
- percentage distribution of the protein, fraction W3 ([6]; washing fraction 3): 0.9%

Substance: DVEAWLGAR
- Kd ([3]; read-out: Kd): 17 ± 4 nM

Substance: DVEAWLGARVPLVET
- Kd ([3]; read-out: Kd): 4.1 ± 0.6 nM

Substance: DVEAWLGER
- Kd ([3]; read-out: Kd): 17 ± 4 nM

Substance: DVEAWLGERVPLVET
- Kd ([3]; read-out: Kd): 4.2 ± 0.7 nM

Substance: DVEAWRDER
- Kd [3]: not measurable

Substance: DVGAWLDER
- Kd ([3]; read-out: Kd): 570 ± 90 nM

Substance: MDEKTTGWRGGIIVVEGLAGELEQLRARLEHHPQGQREP [SBP-tag]
- Kd [1]: 2.5 nM

Substance: WSHPQFEK [Strep-tag II]
- Kd [1]: 18000 to 72000 nM
